Data on 31 molecules can be found in article PMC8910697, “Development of VPC-70619, a Small-Molecule N-Myc Inhibitor as a Potential Therapy for Neuroendocrine Prostate Cancer” (International Journal of Molecular Sciences, 2022).

Holding throughout (assay type): cell-based
The subject of experiment [1] is IMR32 cells. The experiment can be described thus: Cell viability (CellTiter-Glo), IMR32. The note with it: Homo sapiens, IMR-32. Here is the method: (§1) The 54 compounds were tested at 10 µM for their inhibition of the IMR32 human neuroblastoma cell line, in which the MYCN gene is amplified and actively expressed (Table 3). HO15.19 cell line (Myc-negative) was used in parallel as a compound specificity control.
(§2) Viability of N-Myc positive (IMR32and NCI-H660) and negative (HO15.19) cells were determined using the CellTiter-Glo Luminescent Cell Viability Assay (Promega cat. G7570) (Madison, WI, USA). Cells were seeded into a 96-well white plate with a clear bottom: 10,000 cells per well for the IMR32 cells cultured in EMEM supplemented with 10% FBS, 2000 HO15.19 cells per well in Eagle’s minimum essential medium (EMEM) supplemented with 10% FBS, and 2000 cells per well for the NCI-H660 neuroendocrine cells cultured in RPMI supplemented 5% FBS, 1% Insulin-Transferrin-Selenium (Thermo Fisher, 41400-045), 10nM b-estradiol (Sigma, E8875), 10nM hydrocortisone (Sigma H0888) and 1% matrigel. Following 24 h incubation, the cells were treated with serial dilutions of the derivatives along with the respective parental compound starting at 25 μM for 72 h. Cell Titer Glo was added to each well at a ratio of 1:1 and incubated on a shaker at RT for 2 min. Luminescence and IC50 was measured with the TECAN InfiniteM200 plate reader (Männedorf, Switzerland).

Experiment [2] has as its system N-Myc-Max transcription activity (LNCaP-NMYC cells). Nature of the experiment: Myc transcription assay (Cignal Myc reporter, luciferase) in LNCaP-NMYC cells. The note with it: LNCaP-NMYC; for transcription inhibition activity (in words): screened at 10 µM and 5 µM. As for the experimental part:
To determine the optimal substitutions on the free phenyl ring, we used the active scaffold for a second substructure search against the ZINC15 database to identify a set of 181 analogues for further validation (VPC-70617 to -70799, presented in Supplementary Table S1). Compounds were tested for their inhibition of a N-Myc-Max luciferase transcription activity assay at 5 and 10 µM Figure 2a. Herein, we inspected all the proposed substitutions on the scaffold to discern the features required to construct a possible SAR model for inhibitors targeting N-Myc-Max/DBD complex (Figure 2b).
LNCaP-NMYC cells were transfected using TransIT-2020 transfection reagents per the manufacturer’s protocol. Cells were plated at a density of 10,000 cells per well of a 96-well plate. Following 24 h treatment with 5 µM or 10 µM of the compounds, the Myc reporter activity was measured using the Cignal Myc Reporter Assay Kit from Qiagen (#336841) (Hilden, Germany) per the manufacturer’s instructions.

Experiment [3] has as its system HO15.19 cells. The experiment can be described thus: Cell viability counter-screen (CellTiter-Glo), Myc-negative HO15.19. The settings on record: Rattus norvegicus, HO15.19, 10 µM; Myc-negative specificity control. As for the experimental part:
as §1, §2
A general note: Counterscreens check selectivity or assay interference.

Structures are written as SMILES.

As a reminder, the inhibition is the percentage by which the read-out fell short of the control. A high value points to a strong effect. For `N#Cc1ccc(NNC(=O)c2ccc(C(F)(F)F)c(F)c2)c(C(F)(F)F)c1` [compound 70693], the values for the inhibition at 10 µM in experiment [1] and in experiment [3] were 22.4% and 0.2%, respectively. Besides, the “transcription inhibition activity (in words)” value in experiment [2] is recorded as “strong increase in inhibition activity”.
For the molecule `Cc1cc(C(=O)NNc2ccc(C#N)cc2C(F)(F)F)cc(C)c1F` [compound 70679], the inhibition at 10 µM in experiment [1] is 1.1%; in experiment [3], 7.3%. For the same molecule, in experiment [2], the “transcription inhibition activity (in words)” value is “strong increase in inhibition activity”.
Regarding `N#Cc1ccc(NNC(=O)c2cc(F)c(Cl)cc2Cl)c(C(F)(F)F)c1` [compound 70730], the inhibition at 10 µM was 87.5% in experiment [1] and 77.1% in experiment [3]. Besides, the “transcription inhibition activity (in words)” value in experiment [2] was “recovered the inhibition activity”.
In the case of `N#Cc1ccc(NNC(=O)c2cc(F)c(Cl)c(F)c2)c(C(F)(F)F)c1` [compound 70767], the inhibition at 10 µM in experiment [1] was 31.6%; in experiment [3], 40.3%. Further, in experiment [2], the “transcription inhibition activity (in words)” value is “strong increase in inhibition activity”.
Take `N#Cc1ccc(NNC(=O)c2ccc([N+](=O)[O-])cc2)c(C(F)(F)F)c1` [compound 70663]: the inhibition at 10 µM in experiment [1] came to 28.9%; in experiment [3], 7.9%. In experiment [2], the “transcription inhibition activity (in words)” value is given as “maintained good transcription inhibition activity”.
`N#Cc1ccc(NNC(=O)c2cc(Cl)cc(Cl)c2)c(C(F)(F)F)c1` [compound 70652]: the inhibition at 10 µM came out at 92.5% in experiment [1] and 80.7% in experiment [3]. Moreover, the “transcription inhibition activity (in words)” value in experiment [2] is “very strong transcription inhibition”.
Consider `COc1cc(Cl)cc(C(=O)NNc2ccc(C#N)cc2C(F)(F)F)c1` [compound 70700], for which the inhibition at 10 µM in experiment [1] is 60.5%; in experiment [3] it was 42%. In addition, the “transcription inhibition activity (in words)” value in experiment [2] was “better inhibition activity”.
Consider `N#Cc1ccc(NNC(=O)c2ccc(Br)c(F)c2)c(C(F)(F)F)c1` [compound 70743], for which the figures for the inhibition at 10 µM in experiment [1] and in experiment [3] were 38.7% and 74.9%, respectively. The “transcription inhibition activity (in words)” value in experiment [2] is listed as “strong increase in inhibition activity”.
Turning to `N#Cc1ccc(NNC(=O)c2cc(Cl)cc(F)c2Br)c(C(F)(F)F)c1` [compound 70776], the inhibition at 10 µM in experiment [1] is 27.4%; in experiment [3] it was 26.1%. In addition, in experiment [2], the “transcription inhibition activity (in words)” value was “high transcription inhibition activity”.
On to `N#Cc1ccc(NNC(=O)c2cc(Cl)cc([N+](=O)[O-])c2)c(C(F)(F)F)c1` [compound 70761], for which the inhibition at 10 µM is 93.3% in experiment [1] and 81% in experiment [3]. Also, the “transcription inhibition activity (in words)” value in experiment [2] was “better inhibition activity”.
In the same order, the values of `N#Cc1ccc(NNC(=O)c2ccc(SC(F)(F)F)cc2)c(C(F)(F)F)c1` [compound 70658] are 46.9%, 57.2% and “active”.
Take `N#Cc1ccc(NNC(=O)c2cc(F)cc(Br)c2)c(C(F)(F)F)c1` [compound 70739]: the inhibition at 10 µM in experiment [1] stood at 87.2%; in experiment [3] it was 75.8%. In addition, in experiment [2], the “transcription inhibition activity (in words)” value is on record as “better inhibition activity”.
In the same order, the values of `N#Cc1ccc(NNC(=O)c2cc(F)cc(Cl)c2)c(C(F)(F)F)c1` [compound 70644] are 88.3%, 69.5% and “better inhibition activity”.
Turning to `N#Cc1ccc(NNC(=O)c2cc(F)c(Cl)cc2F)c(C(F)(F)F)c1` [compound 70741], the inhibition at 10 µM in experiment [1] turned out to be 16.4%; in experiment [3] it was 14.5%. Also, the “transcription inhibition activity (in words)” value in experiment [2] is “recovered the inhibition activity”.
Regarding `N#Cc1ccc(NNC(=O)c2ccc(F)c(C(F)(F)F)c2)c(C(F)(F)F)c1` [compound 70647], the inhibition at 10 µM in experiment [1] is 88.6%; in experiment [3], 70.9%. For the same molecule, the “transcription inhibition activity (in words)” value in experiment [2] was “strong increase in inhibition activity”.
On to `N#Cc1ccc(NNC(=O)c2ccc(I)c(F)c2)c(C(F)(F)F)c1` [compound 70742], for which the inhibition at 10 µM in experiment [1] worked out at 26.1%; in experiment [3], 71.8%. Further, the “transcription inhibition activity (in words)” value in experiment [2] is given as “better inhibition activity”.
On to `N#Cc1ccc(NNC(=O)c2ccc(Cl)c(C#N)c2)c(C(F)(F)F)c1` [compound 70662], for which the inhibition at 10 µM was determined as 11% in experiment [1] and 9.9% in experiment [3]. The “transcription inhibition activity at 5 µM (in words)” value in experiment [2] is “recovered the activity”.
For `N#Cc1ccc(NNC(=O)c2ccc(F)c(F)c2F)c(C(F)(F)F)c1` [compound 70715], the figures for the inhibition at 10 µM in experiment [1] and in experiment [3] were 14.4% and 39.9%, respectively. Also, in experiment [2], the “transcription inhibition activity (in words)” value was “strong increase in inhibition activity”.
Regarding `N#Cc1ccc(NNC(=O)c2cc(Cl)cc(Br)c2)c(C(F)(F)F)c1` [compound 70650], the inhibition at 10 µM in experiment [1] came to 92.1%; in experiment [3], 80.2%. In addition, the “transcription inhibition activity (in words)” value in experiment [2] is on record as “very strong transcription inhibition”.
The matching figures for `N#Cc1ccc(NNC(=O)c2ccc(C(F)(F)F)cc2Cl)c(C(F)(F)F)c1` [compound 70704]: 10.6%, 13.6% and “strong increase in inhibition activity”.
Consider `N#Cc1ccc(NNC(=O)c2cc(Cl)c(N)c(Cl)c2)c(C(F)(F)F)c1` [compound 70695], for which the inhibition at 10 µM worked out at 77.1% in experiment [1] and 41.2% in experiment [3]. The “transcription inhibition activity (in words)” value in experiment [2] was “better inhibition activity”.
On to `N#Cc1ccc(NNC(=O)c2cc(C(F)(F)F)ccc2F)c(C(F)(F)F)c1` [compound 70769], for which the inhibition at 10 µM in experiment [1] was 32.2%; in experiment [3], 28.2%. Also, the “transcription inhibition activity (in words)” value in experiment [2] is listed as “high transcription inhibition activity”.
For `N#Cc1ccc(NNC(=O)c2ccc(Cl)cc2C(F)(F)F)c(C(F)(F)F)c1` [compound 70706], the figures for the inhibition at 10 µM in experiment [1] and in experiment [3] were 54.3% and 65.6%, respectively. Moreover, the “transcription inhibition activity (in words)” value in experiment [2] is listed as “activity was maintained”.
On to `N#Cc1ccc(NNC(=O)c2cc(C(F)(F)F)cc(C(F)(F)F)c2)c(C(F)(F)F)c1` [compound 70756], for which the inhibition at 10 µM in experiment [1] came to 95.7%; in experiment [3], 84.1%. Moreover, the “transcription inhibition activity (in words)” value in experiment [2] is reported as “better inhibition activity”.
Turning to `N#Cc1ccc(NNC(=O)c2c(O)cc(Cl)cc2Cl)c(C(F)(F)F)c1` [compound 70719], the inhibition at 10 µM in experiment [1] is 95%; in experiment [3], 76.5%. In addition, in experiment [2], the “transcription inhibition activity (in words)” value is listed as “recovered the inhibition activity”.
With `N#Cc1ccc(NNC(=O)c2ccc(Cl)cc2O)c(C(F)(F)F)c1` [compound 70633], the inhibition at 10 µM was determined as 93.6% in experiment [1] and 77% in experiment [3]. Further, the “transcription inhibition activity (in words)” value in experiment [2] is “activity was maintained”.
For `N#Cc1ccc(NNC(=O)c2cc(F)cc(F)c2)c(C(F)(F)F)c1` [compound 70639], the inhibition at 10 µM in experiment [1] is 60.2%; in experiment [3], 66.1%. Further, in experiment [2], the “transcription inhibition activity (in words)” value is “better inhibition activity”.
With `N#Cc1ccc(NNC(=O)c2cc(F)cc(C(F)(F)F)c2)c(C(F)(F)F)c1` [compound 70794], the figures for the inhibition at 10 µM in experiment [1] and in experiment [3] were 89.2% and 80.7%, respectively. In addition, the “transcription inhibition activity (in words)” value in experiment [2] was “better inhibition activity”.
As for `N#Cc1ccc(NNC(=O)c2cc(Cl)cc(Br)c2F)c(C(F)(F)F)c1` [compound 70768], the inhibition at 10 µM in experiment [1] was determined as 35.3%; in experiment [3], 39.8%. Further, the “transcription inhibition activity (in words)” value in experiment [2] was “high transcription inhibition activity”.
Regarding `COc1cc(C(=O)NNc2ccc(C#N)cc2C(F)(F)F)ccc1Cl` [compound 70685], the inhibition at 10 µM was 24.7% in experiment [1] and 15.2% in experiment [3]. The “transcription inhibition activity at 5 µM (in words)” value in experiment [2] is given as “recovered the activity”.
Turning to `N#Cc1ccc(NNC(=O)c2ccc(F)c(Cl)c2)c(C(F)(F)F)c1` [compound 70680], the inhibition at 10 µM in experiment [1] came out at 52.9%; in experiment [3], 64%. The “transcription inhibition activity (in words)” value in experiment [2] is listed as “strong increase in inhibition activity”.
